Measurements reported in PMC7363588, “Mapping of the FGF14:Nav1.6 complex interface reveals FLPK as a functionally active peptide modulating excitability” (Physiological Reports, 2020).
Entries after “also recorded” stand apart in the source; their conditions may differ. Peptide text beside a SMILES is read from it.

Biological target: T1, FGF14^V160A (Homo sapiens, UniProt Q92915, V155A)
T1 construct: aa 64–252); 6X His (N); made in house; host or cells: E. coli BL21 (DE3) pLys
T1 sequence (Q92915 64-252 isoform Q92915-2 V160A): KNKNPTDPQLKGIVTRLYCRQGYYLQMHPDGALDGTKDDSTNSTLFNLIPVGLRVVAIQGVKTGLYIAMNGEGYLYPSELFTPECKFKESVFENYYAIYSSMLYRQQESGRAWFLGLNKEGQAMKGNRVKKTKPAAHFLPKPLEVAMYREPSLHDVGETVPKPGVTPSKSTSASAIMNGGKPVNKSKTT
Assay: SPR binding to FGF14^V160A
Text: Plasmids used in this study derived from the following clones: human FGF14‐1b isoform (accession number: NM_175929.2) and human Nav1.6 (accession number: NM_014191.3). The CLuc‐FGF14, CD4‐Nav1.6‐NLuc, constructs and the pcDNA3.1 vector (Invitrogen, Carlsbad, CA) were engineered and characterized as previously described (Goetz et al., 2009; Shavkunov et al., 2012,2013,2015; Ali et al., 2016, 2018; Wadsworth et al., 2019). The plasmid pGL3 expressing full length Firefly (Photinus pyralis) luciferase was a gift from Dr. P. Sarkar (Department of Neurology, UTMB). For protein purification studies, cDNAs encoding FGF14‐1b (accession number NP_787125; aa 64–252) or the C‐terminal tail of Nav1.6 (accession number #NP_001171455; aa 1756–1939) were subcloned into suitable pET bacterial expression vectors (pET28a‐FGF14; pET30a‐Nav1.6) with a 6X His‐tag at the N‐terminal site; these plasmids were a gift of Dr. Moosa Mohammadi (NYU, Langone Medical Center). The mutation coding for FGF14^V160A was generated by site‐directed mutagenesis and PCR using FGF14‐1b as a template described previously (Ali et al., 2016). For electrophysiological studies FGF14‐GFP (human) and FGF14‐ΔNT‐GFP (human) were cloned into the GFP plasmid (pQBI‐fC2; Quantum Biotechnology Inc., Montreal, Canada) as previously described.
Upon transformation with corresponding cDNA clones, the recombinant proteins FGF14, FGF14^V160A and Nav1.6 C‐terminal tail were expressed in E. coli BL21 (DE3) pLys (Invitrogen) after induction with 0.1 mM isopropyl thio‐β‐D‐galacto‐pyranoside (IPTG) for 24 hr at 16°C. […]
SPR experiments were performed on a Biacore T100 (GE Healthcare Bio‐Sciences, Pittsburgh, PA), and the interaction of FGF14 and Nav1.6 channel toward FLPK, PLEV and EYYV (1–100 µM) were studied at 25°C. […] Maximal equilibrium responses were plotted against peptide concentrations and association rate constant (kon), dissociation rate constatnt (koff) were determined. […]

[1] = CM5, 25°C, 1–100 µM, RU 18,000, N.M. = not measurable

SMILES: CC(=O)N[C@@H](Cc1ccccc1)C(=O)N[C@@H](CC(C)C)C(=O)N1CCC[C@H]1C(=O)N[C@@H](CCCCN)C(N)=O [FLPK] (Ac-FLPK-NH2)
- koff, dissociation rate constant [1]: N.M.
- kon, association rate constant [1]: N.M.
- binding to FGF14^V160A (peptide 1–100 µM): no measurable binding; also recorded: no binding of FLPK was detected
